Reference: patent publication US9533985B2, “Sulfonamide derivative and medicinal use thereof” (EA Pharma Co., Ltd., priority 2012, dated 2017)

Key:
Type in all cases: cell-based
[1] = biological target: α4β1 integrin (Homo sapiens (Human), UniProt P05556+P13612); experiment: VCAM-1/α4β1 integrin binding inhibitory activity evaluation test (Jurkat cell adhesion to VCAM-1/Fc); conditions: Jurkat cells binding to recombinant human VCAM-1/Fc
Method: The ability of test substances to inhibit the binding of a human T-cell line, Jurkat, which is known to express α4β1 integrin, to VCAM-1 was measured. To 96-well microtiter plates, recombinant human VCAM-1/Fc (R&D systems) solution (1 μg/mL) diluted with buffer A (carbonate buffer, pH 9.6) was added at 50 μL/well, followed by incubation at 4° C. overnight. After washing once with PBS, Block Ace (Snow Brand Milk Products Company, Limited) was added at 150 μL/well, followed by incubation at room temperature for 2 hours. After removal, washing was conducted once with PBS. 100 μL of each test substance diluted with a binding buffer (DMEM containing 40 mM HEPES, 0.2% BSA, and 4 mM MnCl2) to various concentrations and 100 μL of the Jurkat cells (2×10^6 cell/mL) were added to the plates coated with VCAM-1/Fc (5×10^5 cells/well), followed by incubation at 30° C. for 15 minutes to 60 minutes. After the cells were bound to each well, unbound cells were removed by washing with PBS. To the plates, buffer C (PBS containing 1.5% Triton X-100) was added at 50 μL/well to lyse the bound Jurkat cells. To 30 μL of the cell lysate, 30 μL of Substrate Buffer (Promega, CytoTox 96 Non-Radioactive Cytotoxicity Assay) was added, and the reaction was allowed to proceed at room temperature in a dark place for 30 minutes. To each well, 30 μL of Stop Solution (Promega, CytoTox 96 Non-Radioactive Cytotoxicity Assay) was added, and the absorbance at 490 nm was measured by using a plate reader. Here, by the obtained absorbance, the activity of the lactate dehydrogenase (LDH) dissolved into the supernatant of each well was detected. In other words, the absorbance was proportional to the number of the Jurkat cells bound to VCAM-1 and remaining on the plate. The test was duplicated. The binding ratios of the cells at various concentrations were determined, with the absorbance of a well containing no test substances taken as 100%. Then, the concentration IC50, at which 50% binding inhibition was achieved, was calculated. […] Note that, among the compounds synthesized in the corresponding Examples, the compounds in the free form (Compounds A-1 to A-39) were used as the test compounds. Hereinafter, the same shall apply.

[2] = biological target: T1, α4β7 integrin (Homo sapiens (Human), UniProt P13612+P26010); experiment: MAdCAM-1/α4β7 integrin binding inhibitory activity evaluation test in the presence of serum (1); conditions: RPMI-8866 cells binding to mouse MAdCAM-1/Fc, human serum at final concentration of 50%; read-out: α4β7 with serum added, IC50
T1 sequence (P13612 34-1032): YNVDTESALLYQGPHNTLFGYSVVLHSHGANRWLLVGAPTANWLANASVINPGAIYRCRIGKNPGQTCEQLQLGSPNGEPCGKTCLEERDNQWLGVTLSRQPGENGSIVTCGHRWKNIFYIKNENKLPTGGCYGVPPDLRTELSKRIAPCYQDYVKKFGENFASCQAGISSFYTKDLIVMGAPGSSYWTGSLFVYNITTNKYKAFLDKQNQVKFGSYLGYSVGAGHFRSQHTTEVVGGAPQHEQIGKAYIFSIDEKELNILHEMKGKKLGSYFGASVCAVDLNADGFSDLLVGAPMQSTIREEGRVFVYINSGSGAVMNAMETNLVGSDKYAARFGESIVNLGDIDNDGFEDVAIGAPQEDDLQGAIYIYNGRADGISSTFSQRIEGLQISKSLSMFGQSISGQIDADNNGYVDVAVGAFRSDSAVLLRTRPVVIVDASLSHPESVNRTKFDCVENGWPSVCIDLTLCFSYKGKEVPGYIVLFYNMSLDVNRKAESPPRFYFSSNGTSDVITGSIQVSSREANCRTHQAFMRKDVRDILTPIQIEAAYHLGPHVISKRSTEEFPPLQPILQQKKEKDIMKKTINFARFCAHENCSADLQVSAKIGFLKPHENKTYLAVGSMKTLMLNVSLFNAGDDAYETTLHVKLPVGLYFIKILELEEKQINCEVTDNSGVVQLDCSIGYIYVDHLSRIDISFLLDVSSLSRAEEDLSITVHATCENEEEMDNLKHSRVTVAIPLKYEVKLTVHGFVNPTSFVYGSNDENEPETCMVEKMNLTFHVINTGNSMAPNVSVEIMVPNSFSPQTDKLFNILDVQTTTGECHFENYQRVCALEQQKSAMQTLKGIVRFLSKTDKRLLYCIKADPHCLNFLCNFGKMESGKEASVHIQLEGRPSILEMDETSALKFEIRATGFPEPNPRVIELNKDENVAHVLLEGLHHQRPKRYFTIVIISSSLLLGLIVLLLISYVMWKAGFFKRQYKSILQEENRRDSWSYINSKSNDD
T1 sequence (P26010 20-798): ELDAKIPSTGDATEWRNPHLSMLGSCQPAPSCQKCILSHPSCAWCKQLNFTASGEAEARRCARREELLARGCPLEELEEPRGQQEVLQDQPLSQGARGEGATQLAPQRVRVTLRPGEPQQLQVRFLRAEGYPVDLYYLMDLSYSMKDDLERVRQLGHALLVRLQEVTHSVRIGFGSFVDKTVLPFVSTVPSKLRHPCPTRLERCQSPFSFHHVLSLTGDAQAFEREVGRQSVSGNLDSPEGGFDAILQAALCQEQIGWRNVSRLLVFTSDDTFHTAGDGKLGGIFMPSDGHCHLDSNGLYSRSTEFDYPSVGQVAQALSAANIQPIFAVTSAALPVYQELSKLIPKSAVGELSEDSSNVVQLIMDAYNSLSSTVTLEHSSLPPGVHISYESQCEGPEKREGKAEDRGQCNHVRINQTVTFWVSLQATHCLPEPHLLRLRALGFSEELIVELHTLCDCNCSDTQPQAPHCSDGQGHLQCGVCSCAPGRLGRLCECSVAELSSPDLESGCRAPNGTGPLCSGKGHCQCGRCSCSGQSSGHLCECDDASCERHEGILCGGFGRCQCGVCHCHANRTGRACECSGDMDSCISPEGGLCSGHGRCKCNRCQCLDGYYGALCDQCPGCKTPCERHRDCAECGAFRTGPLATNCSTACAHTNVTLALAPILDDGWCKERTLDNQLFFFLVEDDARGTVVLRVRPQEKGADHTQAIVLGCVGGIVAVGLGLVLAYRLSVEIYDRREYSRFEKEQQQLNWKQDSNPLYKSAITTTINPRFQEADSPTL
Method: (§1) The ability of test substances to inhibit the binding of a human B cell line, RPMI-8866, which is known to express α4β7 integrin, to MAdCAM-1 was measured. To 96-well microtiter plates, recombinant mouse MAdCAM-1/Fc (R&D systems) solution (1 μg/mL) diluted with buffer A (carbonate buffer, pH 9.6) was added at 50 μL/well, followed by incubation at 4° C. overnight. After washing once with PBS, Block Ace (Snow Brand Milk Products Company, Limited) was added at 150 μL/well, followed by incubation at room temperature for 2 hours. After removal, washing was conducted once with PBS. 100 μL of each test substance diluted with a binding buffer (DMEM containing 40 mM HEPES, 0.2% BSA, and 4 mM MnCl2) to various concentrations and 100 μL of RPMI-8866 cells (2×10^6 cell/mL) were added to plates coated with MAdCAM-1/Fc (5×10^5 cells/well) with human serum being contained at a final concentration of 50%, followed by incubation at 30° C. for 15 minutes to 60 minutes. After the cells were bound to each well, unbound cells were removed by washing with PBS. To the plates, buffer C (PBS containing 1.5% Triton X-100) was added at 50 μL/well to lyse the bound RPMI-8866 cells. To 30 μL of the cell lysate, 30 μL of Substrate Buffer (Promega, CytoTox 96 Non-Radioactive Cytotoxicity Assay) was added, and the reaction was allowed to proceed at room temperature in a dark place for 30 minutes. To each well, 30 μL of Stop Solution (Promega, CytoTox 96 Non-Radioactive Cytotoxicity Assay) was added, and the absorbance at 490 nm was measured by using a plate reader. Here, by the obtained absorbance, the activity of the lactate dehydrogenase (LDH) dissolved into the supernatant of each well was detected. In other words, the absorbance was proportional to the number of the RPMI-8866 cells bound to MAdCAM-1 and remaining on the plate. The test was duplicated. The binding ratios of the cells at various concentrations were determined, with the absorbance of a well containing no test substance taken as 100%. Then, the concentration IC50, at which 50% binding inhibition was achieved, was calculated.

[3] = biological target: T1, α4β7 integrin; experiment: MAdCAM-1/α4β7 integrin binding inhibitory activity evaluation test (RPMI-8866 cell adhesion to MAdCAM-1/Fc); conditions: for Selectivity: IC50 in VCAM-1/α4β1 test divided by IC50 in MAdCAM-1/α4β7 test; for IC50: RPMI-8866 cells binding to recombinant mouse MAdCAM-1/Fc, no serum
Method: as §1, with “systems) solution (0.75 μg/mL) diluted” for “systems) solution (1 μg/mL) diluted”, “A (carbonate buffer solution, pH 9.6)” for “A (carbonate buffer, pH 9.6)”, “diluted with binding buffer” for “diluted with a binding buffer”, “added to the plates coated” for “added to plates coated”, “MAdCAM-1/Fc (5×10^5 cells/well), followed by” for “MAdCAM-1/Fc (5×10^5 cells/well) with human serum being contained at a final concentration of 50%, followed by”, “was calculated. […] Note that the selectivity in the table was determined by dividing the IC50 value in VCAM-1/α4β1 Integrin Binding Inhibitory Activity Evaluation Test by the IC50 value in the MAdCAM-1/α4β7 integrin binding inhibitory activity evaluation test.” for “was calculated.”

α4β1 integrin, sequence (P13612 34-1032): as the sequence (P13612 34-1032) above
α4β1 integrin, sequence (P05556 21-798): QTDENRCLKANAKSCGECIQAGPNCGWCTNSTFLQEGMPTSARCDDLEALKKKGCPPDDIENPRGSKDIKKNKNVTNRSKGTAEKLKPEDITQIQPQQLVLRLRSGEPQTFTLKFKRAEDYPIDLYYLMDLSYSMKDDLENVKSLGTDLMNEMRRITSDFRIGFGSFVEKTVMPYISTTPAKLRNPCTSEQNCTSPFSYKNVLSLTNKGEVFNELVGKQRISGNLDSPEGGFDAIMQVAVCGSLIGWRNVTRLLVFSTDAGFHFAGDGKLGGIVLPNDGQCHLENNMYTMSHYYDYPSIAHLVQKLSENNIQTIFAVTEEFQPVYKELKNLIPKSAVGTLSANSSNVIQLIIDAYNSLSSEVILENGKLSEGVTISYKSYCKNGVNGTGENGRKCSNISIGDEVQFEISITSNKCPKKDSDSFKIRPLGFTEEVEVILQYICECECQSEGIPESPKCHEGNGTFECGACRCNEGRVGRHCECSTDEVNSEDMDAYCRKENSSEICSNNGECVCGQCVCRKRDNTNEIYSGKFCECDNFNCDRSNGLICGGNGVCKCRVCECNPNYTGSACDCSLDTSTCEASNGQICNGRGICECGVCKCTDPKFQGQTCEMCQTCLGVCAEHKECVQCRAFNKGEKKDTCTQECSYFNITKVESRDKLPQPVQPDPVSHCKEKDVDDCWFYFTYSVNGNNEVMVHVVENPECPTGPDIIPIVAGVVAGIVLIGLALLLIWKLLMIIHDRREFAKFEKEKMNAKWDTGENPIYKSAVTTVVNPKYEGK

**Q.** With `CNCc1ccc(S(=O)(=O)Nc2ccc(C(=O)N[C@@H](Cc3ccc(-n4c(=O)c5ccncc5n(C)c4=O)cc3)C(=O)O)c(F)c2)cc1` [Example 52, N-{2-Fluoro-4-[({4-[(methylamino)methyl]phenyl}sulfonyl)amino]benzoyl}-4-(1-methyl-2,4-dioxo-1,4-dihydropyrido[3,4-d]pyrimidin-3(2H)-yl)-L-phenylalanine] as the compound, how does the IC50 [1] read?
**A.** 550 nM

**Q.** And the IC50 [2]?
**A.** 13 nM

**Q.** And the Selectivity [3]?
**A.** 210

**Q.** What about the IC50 [3] of the same compound?
**A.** 2.6 nM

**Q.** For `Cn1c(=O)n(-c2ccc(C[C@H](NC(=O)c3c(F)cc(NS(=O)(=O)c4ccc(-c5ccsc5)cc4)cc3F)C(=O)O)cc2)c(=O)c2ccncc21` [Example 53, N-[2,6-Difluoro-4-({[4-(3-thienyl)phenyl]sulfonyl}amino)benzoyl]-4-(1-methyl-2,4-dioxo-1,4-dihydropyrido[3,4-d]pyrimidin-3(2H)-yl)-L-phenylalanine], which IC50 [1] is on record?
**A.** 740 nM

**Q.** What about the IC50 [2] of the same compound?
**A.** 24 nM

**Q.** What about the Selectivity [3] of the same compound?
**A.** 260

**Q.** And the IC50 [3]?
**A.** 2.8 nM

**Q.** Which IC50 [1] does the source give for `Cn1c(=O)n(-c2ccc(C[C@H](NC(=O)c3c(F)cc(NS(=O)(=O)c4ccc(-c5cncnc5)cn4)cc3F)C(=O)O)cc2)c(=O)c2ccncc21` [Example 54, N-(2,6-Difluoro-4-{[(5-pyrimidin-5-yl-pyridin-2-yl)sulfonyl]amino}benzoyl)-4-(1-methyl-2,4-dioxo-1,4-dihydropyrido[3,4-d]pyrimidin-3(2H)-yl)-L-phenylalanine] here?
**A.** 18 nM

**Q.** And the IC50 [2]?
**A.** 1.6 nM

**Q.** What about the Selectivity [3] of the same compound?
**A.** 230

**Q.** And the IC50 [3]?
**A.** 0.077 nM

**Q.** With `Cn1c(=O)n(-c2ccc(C[C@H](NC(=O)c3c(F)cc(NS(=O)(=O)c4ccc(-n5cncn5)nc4)cc3F)C(=O)O)cc2)c(=O)c2ccncc21` [Example 55, N-[2,6-Difluoro-4-({[6-(1H-1,2,4-triazol-1-yl)pyridin-3-yl]sulfonyl}amino)benzoyl]-4-(1-methyl-2,4-dioxo-1,4-dihydropyrido[3,4-d]pyrimidin-3(2H)-yl)-L-phenylalanine] as the compound, how does the IC50 [1] read?
**A.** 45 nM

**Q.** And the IC50 [2]?
**A.** 4.6 nM

**Q.** And the Selectivity [3]?
**A.** 170

**Q.** And the IC50 [3]?
**A.** 0.27 nM

**Q.** For `Cn1ccc(=O)n(-c2ccc(C[C@H](NC(=O)c3c(F)cc(NS(=O)(=O)c4ccc(-n5cncn5)cn4)cc3F)C(=O)O)cc2)c1=O` [Example 56, N-[2,6-Difluoro-4-({[5-(1H-1,2,4-triazol-1-yl)pyridin-2-yl]sulfonyl}amino)benzoyl]-4-(3-methyl-2,6-dioxo-3,6-dihydropyrimidin-1(2H)-yl)-L-phenylalanine], which IC50 [1] is on record?
**A.** 160 nM

**Q.** What about the IC50 [2] of the same compound?
**A.** 5.4 nM

**Q.** What about the Selectivity [3] of the same compound?
**A.** 80

**Q.** What about the IC50 [3] of the same compound?
**A.** 2 nM

**Q.** Which IC50 [1] does the source give for `Cn1c(=O)n(-c2ccc(C[C@H](NC(=O)c3c(F)cc(NS(=O)(=O)c4ccc(-n5cncn5)cn4)cc3F)C(=O)O)cc2)c(=O)c2ccncc21` [Example 57, N-[2,6-Difluoro-4-({[5-(1H-1,2,4-triazol-1-yl)pyridin-2-yl]sulfonyl}amino)benzoyl]-4-(1-methyl-2,4-dioxo-1,4-dihydropyrido[3,4-d]pyrimidin-3(2H)-yl)-L-phenylalanine] here?
**A.** 13 nM

**Q.** What about the IC50 [2] of the same compound?
**A.** 1.5 nM

**Q.** And the Selectivity [3]?
**A.** 220

**Q.** What about the IC50 [3] of the same compound?
**A.** 0.06 nM

**Q.** Which IC50 [1] does the source give for `Cn1ccc(=O)n(-c2ccc(C[C@H](NC(=O)c3c(F)cc(NS(=O)(=O)c4ccc(-n5ccnn5)cc4)cc3F)C(=O)O)cc2)c1=O` [Example 58, N-[2,6-Difluoro-4-({[4-(1H-1,2,3-triazol-1-yl)phenyl]sulfonyl}amino)benzoyl]-4-(3-methyl-2,6-dioxo-3,6-dihydropyrimidin-1(2H)-yl)-L-phenylalanine] here?
**A.** 410 nM

**Q.** What about the IC50 [2] of the same compound?
**A.** 4.8 nM

**Q.** What about the Selectivity [3] of the same compound?
**A.** 410

**Q.** What about the IC50 [3] of the same compound?
**A.** 1 nM

**Q.** Which IC50 [1] does the source give for `Cn1c(=O)n(-c2ccc(C[C@H](NC(=O)c3c(F)cc(NS(=O)(=O)c4ccc(-c5nccs5)cn4)cc3F)C(=O)O)cc2)c(=O)c2ccncc21` [Example 59, N-[2,6-Difluoro-4-({[5-(1,3-thiazol-2-yl)pyridin-2-yl]sulfonyl}amino)benzoyl]-4-(1-methyl-2,4-dioxo-1,4-dihydropyrido[3,4-d]pyrimidin-3(2H)-yl)-L-phenylalanine] here?
**A.** 22 nM

**Q.** And the IC50 [2]?
**A.** 4.1 nM

**Q.** What about the Selectivity [3] of the same compound?
**A.** 130

**Q.** And the IC50 [3]?
**A.** 0.17 nM

**Q.** How did the IC50 [1] turn out when `Cn1ccc(=O)n(-c2ccc(C[C@H](NC(=O)c3c(F)cc(NS(=O)(=O)c4ccc(-c5cncnc5)cc4)cc3F)C(=O)O)cc2)c1=O` [Example 60, N-(2,6-Difluoro-4-{[(4-pyrimidin-5-yl-phenyl)sulfonyl]amino}benzoyl)-4-(3-methyl-2,6-dioxo-3,6-dihydropyrimidin-1 (2H)-yl)-L-phenylalanine] was run?
**A.** 1200 nM

**Q.** What about the IC50 [2] of the same compound?
**A.** 5.5 nM

**Q.** What about the Selectivity [3] of the same compound?
**A.** 1100

**Q.** And the IC50 [3]?
**A.** 1.1 nM

**Q.** Which IC50 [1] does the source give for `Cn1c(=O)n(-c2ccc(C[C@H](NC(=O)c3c(F)cc(NS(=O)(=O)c4ccc(-n5nccn5)cc4)cc3F)C(=O)O)cc2)c(=O)c2ccncc21` [Example 61, N-[2,6-Difluoro-4-({[4-(2H-1,2,3-triazol-2-yl)phenyl]sulfonyl}amino)benzoyl]-4-(1-methyl-2,4-dioxo-1,4-dihydropyrido[3,4-d]pyrimidin-3(2H)-yl)-L-phenylalanine] here?
**A.** 150 nM

**Q.** What about the IC50 [2] of the same compound?
**A.** 8.7 nM

**Q.** And the Selectivity [3]?
**A.** 330

**Q.** What about the IC50 [3] of the same compound?
**A.** 0.46 nM
